System: pest rodents
Experiment: Pest rodent bait compositions in standard chow: mortality
Format: in vivo, rats
From the text: The basic bait composition (standard chow) used consisted of 65% maize, 25% oat flakes, […], 3% refined finely granulated sugar, and 1% fine table salt.
The Pgp inhibitors were used at the following listed concentration.

## C[C@@H](c1ncncc1F)[C@](O)(Cn1cncn1)c1ccc(F)cc1F [voriconazole]
bait, combination with different active clotting inhibitors
  Mortality in words, Pgp inhibitor combined with active clotting inhibitors: high mortality
Compared to other Pgp inhibiting substances
  Efficacy as Pgp inhibitor in the context of the invention: highly effective
